Laboratory results: patent US4373106A, “Sulfamoyl-substituted phenethylamine derivatives and process of producing them” (Yamanouchi Pharmaceutical Co., Ltd., priority 1980, dated 1983)
Like-named read-outs stand apart in the source and are kept apart here.

Legend:
α- and β-adrenergic = conditions: as disclosed in British Pat. No. 2,006,772; cited from earlier work
[1] = test system: spontaneously hypertensive rats; assay: Antihypertensive effects in spontaneously hypertensive rats, oral, tail cuff method; assay type: in vivo; conditions: systolic blood pressure higher than 150 mmHg
Description: Oral administration: The systolic blood pressure was measured indirectly from the tail cuff method using a programmed electrosphygmanometer (Narco Bio-Systems Inc., PE-300) on spontaneously hypertensive rats having a systolic blood pressure higher than 150 mmHg, the results being shown in Table II.

α-adrenergic = assay: α-Adrenergic blocking action: antagonism of the hypertensive response to phenylephrine in anesthetized, pentolinium-treated rats; assay type: in vivo; conditions: Rattus norvegicus, iv, read-out: α-adrenergic blocking ED50
Description: A. α-Adrenergic blocking action:
The blood pressure was measured in the rats anesthetized with urethane and treated with pentolinium.

[2] = rats anesthetized with urethane, treated with pentolinium, phenylephrine 10 μg/Kg i.v.

In the case of COc1ccccc1OCCNCC(O)c1ccc(C)c(S(N)(=O)=O)c1 (centres unmarked) [Compound A, 5-{1-hydroxy-2-[2-(2-methoxyphenoxy)ethylamino]ethyl}-2-methylbenzenesulfonamide, reference compound], the “α- and β-adrenergic blocking actions” value (α- and β-adrenergic) is given as “strong α- and β-adrenergic blocking actions”, the “Change in systolic blood pressure at stated dose p.o.” value (shortened to “Change … at stated dose p.o.”) ([1]; 10 mg/Kg p.o.) is given as -35 ± 6.4 mmHg and the ED50 (α-adrenergic; [2]) is given as 34 µg/kg.

With CNS(=O)(=O)c1cc(CC(C)NCCOc2ccccc2OC)ccc1OC.Cl (centres unmarked) [Example 4, 2-methoxy-5-{2-[2-(2-methoxyphenoxy)ethylamino]-2-methylethyl}-N-methylbenzenesulfonamide hydrochloride] the ED50 (α-adrenergic) was 0.35 µg/kg.

Compound COc1ccccc1OCCNC(C)Cc1ccc(OC)c(S(=O)(=O)N(C)C)c1.Cl (centres unmarked) [Example 5, 2-Methoxy-5-{2-[2-(2-methoxyphenoxy)ethylamino]-2-methylethyl}-N,N-dimethylbenzenesulfonamide hydrochloride] has an ED50 (α-adrenergic) of 0.26 µg/kg.

In the case of COc1ccccc1OCCNCCc1ccc(OC)c(S(N)(=O)=O)c1.Cl [Example 10, 2-methoxy-5-{2-[2-(2-methoxyphenoxy)ethylamino]ethyl}benzenesulfonamide hydrochloride], the “Change … at stated dose p.o.” value ([1]; 10 mg/Kg p.o.) is reported as -57 ± 5.6 mmHg and the ED50 (α-adrenergic; [2]) is reported as 5.9 µg/kg.

For COc1ccccc1OCCNCCc1ccc(C)c(S(N)(=O)=O)c1.Cl [Example 11, 5-{2-[2-(2-Methoxyphenoxy)ethylamino]ethyl}-2-methylbenzenesulfonamide hydrochloride], the “Change … at stated dose p.o.” value ([1]; 30 mg/Kg p.o.) was -50 ± 4.7 mmHg and the ED50 (α-adrenergic; [2]) was 12 µg/kg.

For CCOc1ccccc1OCCNCCc1ccc(C)c(S(N)(=O)=O)c1.Cl [Example 12, 5-{2-[2-(2-Ethoxyphenoxy)ethylamino]ethyl}-2-methylbenzenesulfonamide hydrochloride], the “Change … at stated dose p.o.” value ([1]; 10 mg/Kg p.o.) was -48 ± 2.0 mmHg and the ED50 (α-adrenergic; [2]) was 7.3 µg/kg.

With COc1ccccc1OCCNCCc1ccc(O)c(S(N)(=O)=O)c1 [Example 15, 2-Hydroxy-5-{2-[2-(2-methoxyphenoxy)ethylamino]ethyl}benzenesulfonamide] the “Change … at stated dose p.o.” value ([1]; 10 mg/Kg p.o.) was -54 ± 6.2 mmHg and the ED50 (α-adrenergic; [2]) was 1.3 µg/kg.

With COc1ccccc1OCCNC(C)Cc1ccc(OC)c(S(N)(=O)=O)c1.Cl (centres unmarked) [Example 16, 2-Methoxy-5-{2-[2-(2-methoxyphenoxy)ethylamino]-2-methylethyl}benzenesulfonamide hydrochloride] the “Change … at stated dose p.o.” value ([1]; 10 mg/Kg p.o.) was -71 ± 11.1 mmHg and the ED50 (α-adrenergic) was 0.8 µg/kg.

For CCOc1ccccc1OCCNC(C)Cc1ccc(OC)c(S(N)(=O)=O)c1.Cl (centres unmarked) [Example 20, 5-{2-[2-(2-Ethoxyphenoxy)ethylamino]-2-methylethyl}-2-methoxybenzenesulfonamide hydrochloride], the “Change … at stated dose p.o.” value ([1]; 3 mg/Kg p.o.) was -57 ± 4.2 mmHg.

For COc1ccccc1OCCNC(C)Cc1ccc(C)c(S(N)(=O)=O)c1.Cl (centres unmarked) [Example 25, 5-{2-[2-(2-Methoxyphenoxy)ethylamino]-2-methylethyl}-2-methylbenzenesulfonamide hydrochloride], the “Change … at stated dose p.o.” value ([1]; 10 mg/Kg p.o.) was -46 ± 3.6 mmHg and the ED50 (α-adrenergic) was 1.2 µg/kg.

For CCC(Cc1ccc(C)c(S(N)(=O)=O)c1)NCCOc1ccccc1OC.Cl (centres unmarked) [Example 26, 5-{2-[2-(2-Methoxyphenoxy)ethylamino]-2-ethylethyl}-2-methylbenzenesulfonamide hydrochloride], the “Change … at stated dose p.o.” value ([1]; 10 mg/Kg p.o.) was -46 ± 4.3 mmHg and the ED50 (α-adrenergic; [2]) was 4 µg/kg.

For Cc1ccc(N(CC2=NCCN2)c2cccc(O)c2)cc1 [Phentolamine, phentolamine, reference compound], the “Change … at stated dose p.o.” value ([1]; 10 mg/Kg p.o.) was “+7.8 ± 5.0 mmHg”, the “Change … at stated dose p.o.” value ([1]; 100 mg/Kg p.o.) was -70 ± 10.1 mmHg and the ED50 (α-adrenergic; [2]) was 61 µg/kg.
